Measurements as given in paper PMC9247344 (ACS infectious diseases, 2021).

Legend:
[1] = test system: HepG2 human hepatocellular carcinoma cell line; assay: Cytotoxicity against HepG2; assay type: cell-based; details: HepG2, 72 h; mean (±S.D.), n≥3; <5.00 = inactive at all concentrations tested
[2] = test system: P. falciparum asexual blood stages (PfABS), strain W2; assay type: cell-based, Plasmodium falciparum; details: for Selectivity Index: PfABS versus HepG2 cytotoxicity; for EC50: Plasmodium falciparum, W2, read-out: PfABS pEC50 (±S.D.) (converted)
[3] = Cytotoxicity against HepG2; assay type: cell-based, human; details: human, HepG2 cells

| SMILES | Cytotoxicity pCC50 (±S.D.) [1] | Selectivity Index [2] | CC50 at 72 h [3] [µM] | EC50 [2] [µM] |
| --- | --- | --- | --- | --- |
| CC1CCC2C(C)C(CCCO)OC3OC4(C)CCC1C32OO4 (centres unmarked) [Compound 6a] | < 5.00 (0.00) | > 891 | – | – |
| C[C@H]1[C@@H](O)O[C@@H]2O[C@@]3(C)CC[C@H]4[C@H](C)CC[C@@H]1[C@@]24OO3 [DHA, dihydroartemisinin] | – | > 9770 | > 8.51 | 0.000871 |
| C[C@@H]1CC[C@H]2[C@@H](C)C(=O)O[C@@H]3O[C@@]4(C)CC[C@@H]1[C@]32OO4 [artemisinin] | – | > 2950 | > 10 | 0.00339 |
| C[C@H]1[C@H](OC(=O)CCC(=O)O)O[C@@H]2O[C@@]3(C)CC[C@H]4[C@H](C)CC[C@@H]1[C@@]24OO3 [artesunate] | – | 3160 | 3.55 | 0.00112 |
| COc1ccc(C[C@H](N)C(=O)N[C@H]2[C@@H](O)[C@H](n3cnc4c(N(C)C)ncnc43)O[C@@H]2CO)cc1 [puromycin] | – | 8.71 | 0.407 | 0.0468 |
